Reference: US20040214789A1, “Therapeutics” (priority 2001, published 2004)
Entries after “also recorded” stand apart in the source; their conditions may differ.

What was measured:
[1] = test system: P10 ADP-ribosyl cyclase from Jurkat T lymphocytes; test: Inhibition of P10 (heavy membrane) ADP-ribosyl cyclase, cyclase activity; type: biochemical, human; details: for Inhibition of intracellular membrane bound P10 ADP-ribosyl cyclase (in words): heavy (P10) membranes from Jurkat T cells, FIG. 3; for Enzyme Activity (% of control), Cyclase activity: P10 fraction, 100 μM 1,N6-etheno-NAD substrate
Procedure: (§1) Heavy membrane (P10 membranes) were prepared from Jurkat T cells (10^9 cells) as described (Guse et al., Nature 1999). P10-ADP-ribosyl cyclase was then incubated with 100 μM substrate (1,N^6-etheno-NAD) in the presence or absence of various concentrations of 8-Br-NHD. The formation of 1,N^6-etheno-cADPR and 1,N^6-etheno-ADPR was continuously monitored by fluorimetry (exc. 300 nm, em. 410 nm). Finally, the precise amount of products 1,N^6-etheno-cADPR and 1,N^6-etheno-ADPR was quantified by HPLC (da Silva et al., 1998a) using a fluorescence detector. Data are presented as mean±SD (n≧3).

[2] = test system: NAD glycohydrolase activity of P10 membranes from Jurkat T lymphocytes; test: Inhibition of NAD glycohydrolase (NADase) activity in the P10 fraction; type: biochemical, human; details: for Inhibition of NADase activity in the P10 fraction (in words): FIG. 3; for Enzyme Activity (% of control), NAD glycohydrolase activity: P10 fraction
Procedure: as §1

[3] = test system: soluble ADP-ribosyl cyclase from Jurkat T lymphocytes; test: Inhibition of partially purified soluble ADP-ribosyl cyclase, cyclase activity; type: biochemical, human; details: soluble fraction, 100 μM 1,N6-etheno-NAD substrate
Procedure: as §1, with “FIG. 1-a, b—Inhibition of intracellular, soluble ADP-ribosyl cyclase by 8-Br-NHD. Soluble protein (S100 protein) was” for “Heavy membrane (P10 membranes) were”, “1999) and soluble ADP-ribosyl cyclase was partially purified by hydroxyapatite chromatography. Partially purified ADP-ribosyl” for “1999). P10-ADP-ribosyl”, “mean ±SD” for “mean±SD”
(§2) Soluble protein (S100 protein) was prepared from Jurkat T cells (10^9 cells) as described (Guse et al., Nature 1999) and soluble ADP-ribosyl cyclase was partially purified by hydroxyapatite chromatography. […] The formation of 1,N^6-etheno-cADPR and 1,N^6-etheno-ADPR was continuously monitored by fluorimetry (exc. 300 nm, em. 410 nm). Finally, the precise amount of products 1,N^6-etheno-cADPR and 1,N^6-etheno-ADPR was quantified by HPLC (da Silva et al., 1998a) using a fluorescence detector. Data are presented as mean±SD (n≧3).

[4] = test system: NAD glycohydrolase activity of soluble protein fraction from Jurkat T lymphocytes; test: Inhibition of NAD glycohydrolase (NADase) activity in the soluble fraction; type: biochemical, human
Procedure: FIG. 1-a, b—Inhibition of intracellular, soluble ADP-ribosyl cyclase by 8-Br-NHD. Soluble protein (S100 protein) was prepared from Jurkat T cells (10^9 cells) as described (Guse et al., Nature 1999) and soluble ADP-ribosyl cyclase was partially purified by hydroxyapatite chromatography. Partially purified ADP-ribosyl cyclase was then incubated with 100 μM substrate (1,N^6-etheno-NAD) in the presence or absence of various concentrations of 8-Br-NHD. The formation of 1,N^6-etheno-cADPR and 1,N^6-etheno-ADPR was continuously monitored by fluorimetry (exc. 300 nm, em. 410 nm). Finally, the precise amount of products 1,N^6-etheno-cADPR and 1,N^6-etheno-ADPR was quantified by HPLC (da Silva et al., 1998a) using a fluorescence detector. Data are presented as mean ±SD (n≧3).
as §2

[5] = target: T1, ecto-ADP-ribosyl cyclase (CD38) (Homo sapiens, UniProt P28907); test: Inhibition of cell surface ADP-ribosyl cyclase on intact Jurkat T cells; type: cell-based; details: FIG. 4
T1 construct: Intact Jurkat T cells expressing ecto-ADP-ribosyl cyclase; endogenous in cells; host or cells: intact Jurkat T cells
T1 sequence (P28907 1-300): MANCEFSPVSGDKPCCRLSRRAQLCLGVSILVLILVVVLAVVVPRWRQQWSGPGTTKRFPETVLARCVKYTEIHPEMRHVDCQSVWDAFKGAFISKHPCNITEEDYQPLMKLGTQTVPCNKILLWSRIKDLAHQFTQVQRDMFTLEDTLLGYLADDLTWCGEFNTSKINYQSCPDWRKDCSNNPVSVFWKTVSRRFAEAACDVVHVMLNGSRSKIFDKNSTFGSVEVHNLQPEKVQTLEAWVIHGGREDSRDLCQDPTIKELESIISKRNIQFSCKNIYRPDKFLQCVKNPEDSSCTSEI
Procedure: as §1, with “Intact” for “Heavy membrane (P10 membranes) were prepared from”, “expressing ecto-ADP-ribosyl cyclase (da Silva” for “(10^9 cells) as described (Guse”, “1998b) were” for “Nature 1999). P10-ADP-ribosyl cyclase was then”, “8-Br-NHD. It is likely that this enzyme is CD38.” for “8-Br-NHD.”

[6] = target: T2, NADase activity of intact Jurkat T cells expressing ecto-ADP-ribosyl cyclase (Homo sapiens, UniProt P28907); test: Inhibition of NADase activity on intact Jurkat T cells; type: cell-based; details: FIG. 4
T2 construct: Intact Jurkat T cells expressing ecto-ADP-ribosyl cyclase; endogenous in cells; host or cells: intact Jurkat T cells
T2 sequence (P28907 1-300): T1 sequence (P28907 1-300)
Procedure: as §1, with “Intact” for “Heavy membrane (P10 membranes) were prepared from”, “expressing ecto-ADP-ribosyl cyclase (da Silva” for “(10^9 cells) as described (Guse”, “1998b) were” for “Nature 1999). P10-ADP-ribosyl cyclase was then”, “8-Br-NHD. It is likely that this enzyme is CD38.” for “8-Br-NHD.”

[7] = test system: TCR/CD3-mediated Ca2+-signalling of the human Jurkat T cell line; test: TCR/CD3-mediated Ca2+ signalling, Fura2 ratiometric imaging; type: cell-based; details: preincubation 250 or 500 μM for 30 min, anti-CD3 OKT3 stimulation, 25 min after stimulation; FIG. 5
Procedure: Intact Jurkat T cells were loaded with Fura2-AM, and Ca^2+ signalling was measured by digital ratiometric Ca^2+ imaging (Guse et al., Nature 1999). For technical reasons the excitation wavelengths were set to 340 and 365 nm, whereas emission was filtered at 520 nm. The cells were preincubated with 250 or 500 μM 8-Br-NHD for 30 min. Then the cells were stimulated by anti-CD3 antibody OKT3 ([…]) in solution, and the cells were transferred to the examination chamber on the digital imaging station. The intracellular Ca^+ concentration was then monitored for about 25 min with a sampling rate of 3 or 6/min. Data are presented as mean intracellular Ca^2+ concentration ±SEM 25 min after stimulation. Numbers in brackets indicate the number of cells investigated in 3 independent experiments.

human Jurkat T cells = test: Proliferation of Jurkat T cells, trypan blue cell counting; type: cell-based; details: present for 4 or 5 days; FIG. 6
Procedure: FIG. 6—Inhibition of proliferation of the human Jurkat T cell line by 8-Br-NHD. Proliferation of intact Jurkat T cells was measured as described earlier (Guse et al., Cell Calcium 1997). Various concentrations of 8-Br-NHD were added to the cultures in 96 well plates, and were present for 4 or 5 days. The number of living cells was determined every day by cell counting of trypan blue stained cells. Data are mean±SD from 2 independent experiments.

NADase = details: positive controls; cited from earlier work

SMILES	Inhibition of intracellular membrane bound P10 ADP-ribosyl cyclase (in words) [1]	Enzyme Activity (% of control), Cyclase activity ([1]; inhibitor 10 μM)	Enzyme Activity (% of control), Cyclase activity ([1]; inhibitor 100 μM)	Inhibition of NADase activity in the P10 fraction (in words) [2]	Enzyme Activity (% of control), NAD glycohydrolase activity ([2]; inhibitor 10 μM)	Enzyme Activity (% of control), NAD glycohydrolase activity ([2]; inhibitor 100 μM)	Enzyme Activity (% of control), Cyclase activity ([3]; inhibitor 10 μM)	Enzyme Activity (% of control), Cyclase activity ([3]; inhibitor 100 μM)	Enzyme Activity (% of control), NAD glycohydrolase activity ([4]; inhibitor 10 μM)	Enzyme Activity (% of control), NAD glycohydrolase activity ([4]; inhibitor 100 μM)	Inhibition of ecto-ADP-ribosyl cyclase (in words) [5]	Inhibition of NADase activity, cell surface (in words) [6]	Second, sustained phase of Ca2+ signaling (in words) [7]	Proliferation of Jurkat T cells (in words) (human Jurkat T cells)	Enzyme Activity (% of control), Cyclase activity ([1]; inhibitor 1000 μM)	Enzyme Activity (% of control), NAD glycohydrolase activity ([2]; inhibitor 1000 μM)	Enzyme Activity (% of control), Cyclase activity ([3]; inhibitor 1000 μM)	Enzyme Activity (% of control), NAD glycohydrolase activity ([4]; inhibitor 1000 μM)	Published as inhibitor of NADase (NADase)
NC(=O)c1ccc[n+]([C@@H]2O[C@H](COP(=O)([O-])OP(=O)(O)OC[C@H]3O[C@@H](n4ccc5c(=O)[nH]cnc54)[C@H](O)[C@@H]3O)[C@@H](O)[C@H]2O)c1 [7-deaza-NHD, 7-deaza-nicotinamide hypoxanthine dinucleotide]	inhibit	97.9 % of control	82.1 % of control	inhibit	97.5 % of control	83.3 % of control	94.0 % of control	69.3 % of control	94 % of control	80.5 % of control									
NC(=O)c1ccc[n+](C2OC(COP(=O)([O-])OP(=O)(O)OCC3OC(n4c(Br)nc5c(=O)[nH]cnc54)C(O)C3O)C(O)C2O)c1 (stereo not drawn) [8-Br-NHD, nicotinamide 8-bromohypoxanthine dinucleotide]	dose-dependently inhibited; also recorded: inhibit	59.2 % of control	14.3 % of control	inhibited with a similar pharmacology; also recorded: inhibit	60.8 % of control	15.6 % of control	57.7 % of control	13.0 % of control	55.5 % of control	3.3 % of control	dose-dependent inhibition	inhibited with a similar pharmacology	significantly reduced	dose-dependently inhibits					
NC(=O)c1ccc[n+](C2OC(COP(=O)(O)OP(=O)(O)OCC3OC(n4cnc5c(=O)[nH]cnc54)C(O)C3O)C(O)C2O)c1 (stereo not drawn) [NHD, nicotinamide hypoxanthine dinucleotide]	inhibit	63.6 % of control	11.26 % of control	inhibit	59.0 % of control	0 % of control	46.0 % of control	10.6 % of control	37.3 % of control	13.5 % of control									
NC(=O)c1cccnc1 [Nicotinamide, nicotinamide, reference compound]		94.0 % of control	43.3 % of control		94.2 % of control	42.6 % of control	99.2 % of control	38.2 % of control	95.2 % of control	29.6 % of control					14.9 % of control	12.4 % of control	10.6 % of control	8.2 % of control	published as inhibitors of NADase
NC(=O)c1ccc[n+]([C@@H]2O[C@H](COP(=O)([O-])O)[C@@H](O)[C@H]2O)c1 [β-NMN, β-nicotinamide mononucleotide, reference compound]		112.3 % of control	93.4 % of control		115.0 % of control	91.9 % of control	80.5 % of control	65.4 % of control	81.3 % of control	59.4 % of control					56.9 % of control	48.8 % of control	36.5 % of control	26.9 % of control	published as inhibitors of NADase
